Measured values taken from patent US9409931B1, “3-O-acyl-ingenol analogues” (LEO LABORATORIES LIMITED, priority 2015, dated 2016).

How the values were obtained:
[1] = tested on: Primary human epidermal keratinocytes, HeKa; test: HeKa cytokine release (IL-8); type: cell-based; details: normalized to positive control 1.5×10^−7 M PEP0005, 6 h incubation, read-out: HeKa cytokine release (IL-8) Rel EC50
Method: Primary human epidermal keratinocytes, HeKa, were seeded (10.000 cells/well) in 96-well plates the day before the assay. Test compounds were diluted in DMSO (dimethyl sulfoxide) and further diluted in assay medium and pipetted into wells of 96 well-plates containing HeKa cells. The plates were incubated for 6 h at 37° C. in humidified air with 5% CO2. Plates were centrifuged briefly to spin down cells at 4° C., the supernatant was removed and analysed by Meso Scale Discovery (MSD) 4-spot cytokine assay (Pro-inflammatory II Ultra Sensitive kit, MSD, MD, USA). The MSD assay employs a sandwich immunoassay format where capture antibodies are coated in a patterned array on the bottom of the wells of a 4-Spot-Multi-MSD plate. Standard samples were incubated in the MULTI-SPOT plates as well, and the cytokine (IL-8) binds to its corresponding capture antibody spot. The cytokine level was quantitated on a SECTOR™ Imager using a cytokine-specific Detection Antibody labelled with MSD SULFO-TAG™ reagent.
(§1) Test compound titration curves were fitted to a four-parameter sigmoidal curve after normalizing the effect of the test compound to the effect of the positive control (1.5×10^−7 M PEP0005). Rel EC50 (relative EC50) denotes the concentration of test compound producing an effect that is midway between the fitted top and bottom.

[2] = molecular target: Human Protein Kinase C betaII (PKCbII) (Homo sapiens (Human), UniProt P05771); test: PKCbetaII activity assay; type: biochemical; details: γ-33P-ATP, normalized to the effect of DMSO, read-out: PKC-β binding Rel EC50
Method: On the day at experiment Human Protein Kinase C betaII (PKCbII, Millipore cat#14-496) was incubated with 20 mM HEPES pH 7.4, 0.03% Triton X-100, 0.1 mM CaCl2, 0.1 mg/mL phosphatidylserine, 0.1 mg/mL histone H1, 10 mM MgAcetate. Amount of enzyme in each assay was 1.8 ng (final assay volume is 25 μL). The compounds were then diluted to 500 μM, and then serially diluted in 100% DMSO in semi-logarithmic decrements for 12 points. 0.5 μL of each concentration, in duplicate, was pipetted into a dry 96 well assay plate using a TIP Mosquito. Control and blank wells received 0.5 μL of 100% DMSO instead of compound. 14.5 μl kinase in assay buffer was added to each well. The assay was started with the addition of 10 μL ATP containing γ-33P-ATP] (specific activity approx. 500 cpm/pmol), to a final assay concentration of 70 μM. The reaction was allowed to proceed at room temperature for 40 minutes before the addition of 5 μL 3% ortho-phosphoric acid. Blank wells were acid blanks, and had 5 μL 3% ortho-phosphoric acid added before the addition of ATP. 10 μL of the stopped reaction products was transferred to a P30 filtermat which was then washed 4 times in 75 mM ortho-phosphoric acid, and once in methanol before drying. The filter was read by liquid scintillation counting using a Wallac Trilux. Rel EC50 (relative EC50) denotes the concentration of test compound that produces a response half-way between the fitted top and the fitted bottom of the curve when activities are normalized to the effect of DMSO.

[3] = molecular target: Human Protein Kinase C delta (PKCδ) (Homo sapiens (Human), UniProt Q05655); test: PKC δ binding assay; type: biochemical; details: kinase activation, γ-33P-ATP, normalized to the effect of DMSO; read-out: PKC-δ binding Rel EC50
Method: On the day at experiment Human Protein Kinase C delta (PKCδ, Millipore cat#14-504) was diluted in 20 mM HEPES, 0.03% Triton X-100. Amount of enzyme in each assay was 7.25 ng (final assay volume is 25 μL). All compounds for testing were diluted to 1 mM in 100% DMSO as an intermediary dilution. The compounds were then diluted further to 50 μM, and then serially diluted in 100% DMSO in semi-logarithmic decrements for 12 points. 0.5 μL of each concentration, in duplicate, was pipetted into a dry 96 well assay plate using a TTP Mosquito. Control and blank wells received 0.5 μL of 100% DMSO instead of compound. The assay was built with the addition of 14.5 μL of assay mixture, containing appropriately diluted enzyme and 20 mM HEPES pH 7.4, 0.03% Triton X-100, 0.05 mg/mL phosphatidylserine, and 50 μM ERMRPRKRQGSVRRRV. The assay was started with the addition of 10 μL ATP containing γ-33P-ATP] (specific activity approx. 500 cpm/pmol), to a final assay concentration of 15 μM. The reaction was allowed to proceed at room temperature for 40 minutes before the addition of 5 μL 3% ortho-phosphoric acid. Blank wells were acid blanks, and had 5 μL 3% ortho-phosphoric acid added before the addition of ATP. 10 μL of the stopped reaction products was transferred to a P30 filtermat which was then washed 4 times in 75 mM ortho-phosphoric acid, and once in methanol before drying. The filter was read by liquid scintillation counting using a Wallac Trilux. Rel EC50 (relative EC50) denotes the concentration of test compound that produces a response half-way between the fitted top and the fitted bottom of the curve when activities are normalized to the effect of DMSO.

[4] = tested on: PMN's (polymorphonuclear leukocytes); test: Neutrophil oxidative burst; type: cell-based; details: Leukocyte, 40 min; normalized to positive control 5×10^−7 M PEP0005; 40 min incubation at RT; read-out: Neutrophil oxidative burst Rel EC50
Method: PMN's (polymorphonuclear leukocytes) were isolated and purified from fresh buffy coats by sequential sedimentation, density centrifugation and lysis of contaminating erythrocytes. Buffy coats were incubated with 2% methocel for 30-45 min to differentially sediment red blood cells. The leukocyte-rich supernatant was transferred to lymphoprep tubes to remove mononuclear cells by density centrifugation (400×g, 30 min). The pellet was resuspended and any remaining erythrocytes lysed using 0.2% NaCl for 30 sec before restoring isotonicity by the addition of 1.2% NaCl. This step was repeated until the cell pellet appears relatively free of red blood cells. Cells were resuspended in DPBS (Dulbecco's Phosphate Buffered Saline) (w.o. Ca^2+, Mg^2+) and the concentration adjusted to 1.4×10^6 cells/ml in HBSS (Hanks Balanced Salt solution) (w Ca^2+, Mg^2+) containing 0.1% BSA (Bovine Serum Albumin) and 5 mM glucose just prior to assay initiation. Titrated reference and test compounds were pre-mixed with HE (Hydroethidine) (10 μM final assay concentration) before addition to 96-well plates containing 2.5×10^5 cells. Following 40 min incubation at RT, changes in the respiratory burst was estimated by measuring fluorescence at 579 nm (excitation: 485 nm) using an Envision plate reader.
as §1, with “(5×10^−7” for “(1.5×10^−7”

Human Protein Kinase C delta (PKCδ), sequence (Q05655 whole entry): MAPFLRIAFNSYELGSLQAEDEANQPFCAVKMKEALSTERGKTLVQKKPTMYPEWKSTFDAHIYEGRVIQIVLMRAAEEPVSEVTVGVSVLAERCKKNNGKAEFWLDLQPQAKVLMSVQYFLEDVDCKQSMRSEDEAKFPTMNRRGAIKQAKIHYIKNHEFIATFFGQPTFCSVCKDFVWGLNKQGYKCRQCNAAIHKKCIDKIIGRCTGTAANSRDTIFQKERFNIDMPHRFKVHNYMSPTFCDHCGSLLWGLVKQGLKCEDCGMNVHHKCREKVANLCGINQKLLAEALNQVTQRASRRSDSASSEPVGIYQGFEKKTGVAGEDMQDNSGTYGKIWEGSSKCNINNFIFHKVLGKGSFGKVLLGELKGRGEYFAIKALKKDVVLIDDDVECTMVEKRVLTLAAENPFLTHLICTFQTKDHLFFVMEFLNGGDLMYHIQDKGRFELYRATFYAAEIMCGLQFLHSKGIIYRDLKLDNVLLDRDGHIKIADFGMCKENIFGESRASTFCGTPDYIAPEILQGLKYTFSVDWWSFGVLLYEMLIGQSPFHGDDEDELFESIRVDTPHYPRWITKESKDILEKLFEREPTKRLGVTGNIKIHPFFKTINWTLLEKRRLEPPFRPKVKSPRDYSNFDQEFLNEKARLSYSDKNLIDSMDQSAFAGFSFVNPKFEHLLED
Human Protein Kinase C betaII (PKCbII), sequence (P05771 other isoform, or with tags, fused parts or gaps): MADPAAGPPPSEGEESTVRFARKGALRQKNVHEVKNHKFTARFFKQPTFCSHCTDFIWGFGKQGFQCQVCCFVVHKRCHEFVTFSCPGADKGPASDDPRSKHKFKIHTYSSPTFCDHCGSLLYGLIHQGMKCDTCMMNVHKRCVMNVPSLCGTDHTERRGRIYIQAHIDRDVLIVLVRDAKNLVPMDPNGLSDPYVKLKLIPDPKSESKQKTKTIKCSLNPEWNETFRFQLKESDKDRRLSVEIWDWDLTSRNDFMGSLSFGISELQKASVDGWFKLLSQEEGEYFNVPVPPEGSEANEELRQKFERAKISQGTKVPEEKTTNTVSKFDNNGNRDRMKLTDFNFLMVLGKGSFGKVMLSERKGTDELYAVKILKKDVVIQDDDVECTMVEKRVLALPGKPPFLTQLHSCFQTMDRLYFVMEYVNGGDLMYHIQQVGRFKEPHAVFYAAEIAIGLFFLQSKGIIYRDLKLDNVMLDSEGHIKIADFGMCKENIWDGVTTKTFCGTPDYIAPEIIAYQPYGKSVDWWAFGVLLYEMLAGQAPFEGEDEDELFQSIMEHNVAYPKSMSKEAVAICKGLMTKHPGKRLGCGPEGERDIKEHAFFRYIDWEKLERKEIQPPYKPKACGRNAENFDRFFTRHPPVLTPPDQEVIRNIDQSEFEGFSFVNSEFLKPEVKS

Row | Compound | EC50 [1] [nM] | EC50 [2] [nM] | EC50 [3] [nM] | EC50 [4] [nM]
1 | CC1=C[C@]23C(=O)[C@@H](C=C(CO)C[C@@H]2[C@H]1OC(=O)C1(C)CCCCC1)[C@H]1[C@@H](C[C@H]3C)C1(C)C [Compound 5, 4,5-dideoxyingenol 3-(1-methyl-cyclohexanecarboxylate)] | 130 | 6 | 1110 | 13
2 | CC1=C[C@]23C(=O)[C@@H](C=C(CO)C[C@]2(O)[C@H]1OC(=O)C1(C)CCCCC1)[C@H]1[C@@H](C[C@H]3C)C1(C)C [Compound 6, 5-deoxyingenol 3-(1-methyl-cyclohexanecarboxylate)] | 26 | 0.8 | 80 | 7
3 | CC1=C[C@]23C(=O)[C@@H](C=C(CO)[C@@H](O)[C@@H]2[C@H]1OC(=O)C1(C)CCCCC1)[C@H]1[C@@H](C[C@H]3C)C1(C)C [Compound 7, 4-deoxyingenol 3-(1-methyl-cyclohexanecarboxylate)] | 35 | 0.2 | 154 | 9
4 | CC1=C[C@@]23CC[C@@H]4[C@H]([C@H](C=C(CO)[C@@H](O)[C@]2(O)[C@H]1OC(=O)C1(C)CCCCC1)C3=O)C4(C)C [Compound 8, 11-desmethyl-ingenol 3-(1-methyl-cyclohexanecarboxylate)] | 4 | 0.1 | 7 | 4
